Each molecule was assayed on Tritrichomonas foetus (assay: Tested for anti-trichomonal activity in Tritrichomonas foetus, expressed as % reduction in the severity of peritoneal cavity infection at the dose of 12.50 mg/kg). Conditions: dose 12.5 mg/kg.

SMILES | Reduction [%]
CCn1c(=N)ccc2nc3ccccc3nc21 | 0
N=c1ccc2c(nc3ccccc3[n+]2[O-])n1Cc1ccncc1 | 18
Cn1c(=N)ccc2nc3ccccc3nc21 | 34
N=c1ccc2c(nc3ccccc3[n+]2[O-])n1C1CCCCC1 | 21
CCn1c(=N)ccc2c1nc1ccccc1[n+]2[O-] | 0
COCCn1c(=N)ccc2c1nc1ccccc1[n+]2[O-] | 0
Cn1c(=N)ccc2c1nc1ccccc1[n+]2[O-] | 100

The molecules below were run on Tritrichomonas foetus (assay: Tested for anti-trichomonal activity in Tritrichomonas foetus, expressed as % reduction in the severity of peritoneal cavity infection at the dose of 50 mg/kg). Conditions: not given.

SMILES | Reduction [%]
CCCn1c(=N)ccc2c1nc1ccccc1[n+]2[O-] | 0
N=c1ccc2c(nc3ccccc3[n+]2[O-])n1Cc1ccncc1 | 95
Cn1c(=N)ccc2nc3ccccc3nc21 | 98
CCOCCn1c(=N)ccc2c1nc1ccccc1[n+]2[O-] | 9
Cn1c(=N)ccc2c1nc1ccccc1[n+]2[O-] | 98
N=c1ccc2nc3ccccc3nc2n1Cc1ccncc1 | 15

These molecules were tested on Tritrichomonas foetus (assay: Tested for anti-trichomonal activity in Tritrichomonas foetus, expressed as % reduction in the severity of peritoneal cavity infection at the dose of 25 mg/kg). Conditions: not given.

SMILES | Reduction [%]
Cn1c(=O)ccc2c1nc1ccccc1[n+]2[O-] | 23
COC(Cn1c(=N)ccc2c1nc1ccccc1[n+]2[O-])OC | 25
CCn1c(=N)ccc2nc3ccccc3nc21 | 89
C=CCn1c(=N)ccc2c1nc1ccccc1[n+]2[O-] | 38
N=c1ccc2c(nc3ccccc3[n+]2[O-])n1CCO | 57
N=c1ccc2c(nc3ccccc3[n+]2[O-])n1Cc1ccncc1 | 81
Cn1c(=O)ccc2nc3ccccc3nc21 | 18
Cn1c(=N)ccc2nc3ccccc3nc21 | 75
N=c1ccc2c(nc3ccccc3[n+]2[O-])n1C1CCCCC1 | 96
N=c1ccc2c(nc3ccccc3[n+]2[O-])n1Cc1ccccc1 | 19
CCn1c(=N)ccc2c1nc1ccccc1[n+]2[O-] | 100
COCCn1c(=N)ccc2c1nc1ccccc1[n+]2[O-] | 96
Cn1c(=N)ccc2c1nc1ccccc1[n+]2[O-] | 97
